Reference: patent US20070142392A1, “Uses of rifamycins” (ActivBiotics, Inc., priority 2005, published 2007)
In brackets after ≈: the same amount, converted by molar mass.

Legend:
Assay type in all cases: cell-based
E. coli = test: MIC values, E. coli (Tables 1-4)
S. pneumo. = test: MIC values, S. pneumo. (Tables 1-4)
S. aureus = test: MIC values, S. aureus (Tables 1-4)
H. flu = tested on: H. flu
E. faecalis = test: MIC values, E. faecalis (Tables 1-4)

Compound | MIC E. coli (E. coli) [ng/mL] | MIC S. pneumo. (S. pneumo.) [ng/mL] | MIC S. aureus (S. aureus) [ng/mL] | MIC H. flu (H. flu) [ng/mL] | MIC E. faecalis (E. faecalis) [ng/mL]
CO[C@H]1/C=C/O[C@@]2(C)Oc3c(C)c(O)c4c(=O)c(c5oc6c(F)c(N7CCN(CC(C)C)CC7)ccc6nc-5c4c3C2=O)NC(=O)/C(C)=C\C=C\[C@H](C)[C@H](O)[C@@H](C)[C@@H](O)[C@@H](C)[C@H](O)[C@@H]1C [Compound 109] | 8000 (≈ 8880 nM) | 8 (≈ 8.88 nM) | 30 (≈ 33.3 nM) | 500 (≈ 555 nM) | 500 (≈ 555 nM)
CO[C@H]1/C=C/O[C@@]2(C)Oc3c(C)c(O)c4c(=O)c(c5oc6cc(N7CCNCC7)cc(O)c6nc-5c4c3C2=O)NC(=O)/C(C)=C\C=C\[C@H](C)[C@H](O)[C@@H](C)[C@@H](O)[C@@H](C)[C@H](O)[C@@H]1C [Compound 107] | 4000 (≈ 4750 nM) | 2 (≈ 2.37 nM) | 8 (≈ 9.49 nM) | 120 (≈ 142 nM) | 60 (≈ 71.2 nM)
COC(=O)NC1CCN(c2cc(O)c3nc4c5c6c7c(C)c(O)c5c(=O)c(c-4oc3c2)NC(=O)/C(C)=C\C=C\[C@H](C)[C@H](O)[C@@H](C)[C@@H](O)[C@@H](C)[C@H](O)[C@H](C)[C@@H](OC)/C=C/O[C@@](C)(O7)C6=O)CC1 [Compound 30] | >8000 | 2 (≈ 2.19 nM) | 15 (≈ 16.4 nM) | 500 (≈ 546 nM) | 1000 (≈ 1090 nM)
CCCC(=O)NC1CCN(c2cc(O)c3nc4c5c6c7c(C)c(O)c5c(=O)c(c-4oc3c2)NC(=O)/C(C)=C\C=C\[C@H](C)[C@H](O)[C@@H](C)[C@@H](O)[C@@H](C)[C@H](O)[C@H](C)[C@@H](OC)/C=C/O[C@@](C)(O7)C6=O)CC1 [Compound 36] | >8000 | 0.03 (≈ 0.0324 nM) | 4 (≈ 4.31 nM) | 250 (≈ 270 nM) | 2000 (≈ 2160 nM)
CCOc1c(N2CCN(CC)CC2)ccc2nc3c4c5c6c(C)c(O)c4c(=O)c(c-3oc12)NC(=O)/C(C)=C\C=C\[C@H](C)[C@H](O)[C@@H](C)[C@@H](O)[C@@H](C)[C@H](O)[C@H](C)[C@@H](OC)/C=C/O[C@@](C)(O6)C5=O [Compound 94] | 8000 (≈ 8900 nM) | 0.5 (≈ 0.556 nM) | 8 (≈ 8.9 nM) | 250 (≈ 278 nM) | 500 (≈ 556 nM)
CO[C@H]1/C=C/O[C@@]2(C)Oc3c(C)c(O)c4c(=O)c(c5sc6cc(N7C[C@@H](C)N[C@@H](C)C7)ccc6nc-5c4c3C2=O)NC(=O)/C(C)=C\C=C\[C@H](C)[C@H](O)[C@@H](C)[C@@H](O)[C@@H](C)[C@H](OC(C)=O)[C@@H]1C [Compound 64] | 4000 (≈ 4380 nM) | 0.12 (≈ 0.131 nM) | 4 (≈ 4.38 nM) | 250 (≈ 274 nM) | 120 (≈ 131 nM)
CO[C@H]1/C=C/O[C@@]2(C)Oc3c(C)c(O)c4c(=O)c(c5oc6cc(N7CCC(NC(=O)OC(C)C)CC7)cc(O)c6nc-5c4c3C2=O)NC(=O)/C(C)=C\C=C\[C@H](C)[C@H](O)[C@@H](C)[C@@H](O)[C@@H](C)[C@H](OC(C)=O)[C@@H]1C [Compound 22] | >8000 | 0.25 (≈ 0.254 nM) | 15 (≈ 15.2 nM) | 2000 (≈ 2030 nM) | 4000 (≈ 4060 nM)
COC1C=COC2(C)Oc3c(C)c(O)c4c(=O)c(c5oc6cc(N7CCC(F)C7)ccc6nc-5c4c3C2=O)NC(=O)C(C)=CC=CC(C)C(O)C(C)C(O)C(C)C(O)C1C (mixture of isomers) [Compound 122] | 4000 | 15 | 30 | 60 | 500
COC1C=COC2(C)Oc3c(C)c(O)c4c(=O)c(c5sc6cc(N7CC(C)N(CC8CC8)CC7C)ccc6nc-5c4c3C2=O)NC(=O)C(C)=CC=CC(C)C(O)C(C)C(O)C(C)C(OC(C)=O)C1C (stereo not shown) [Compound 68] | >8000 | 0.5 (≈ 0.517 nM) | 60 (≈ 62 nM) | 500 (≈ 517 nM) | 2000 (≈ 2070 nM)
CO[C@H]1/C=C/O[C@@]2(C)Oc3c(C)c(O)c4c(=O)c(c5oc6cc(N7CCC(c8ccccc8)CC7)cc(O)c6nc-5c4c3C2=O)NC(=O)/C(C)=C\C=C\[C@H](C)[C@H](O)[C@@H](C)[C@@H](O)[C@@H](C)[C@H](O)[C@@H]1C [Compound 62] | >8000 | 8 (≈ 8.71 nM) | 15 (≈ 16.3 nM) | 500 (≈ 545 nM) | 8000 (≈ 8710 nM)
COC1C=COC2(C)Oc3c(C)c(O)c4c(=O)c(c5oc6cc(N7CC8CCCNC8C7)cc(O)c6nc-5c4c3C2=O)NC(=O)C(C)=CC=CC(C)C(O)C(C)C(O)C(C)C(O)C1C (stereo not shown) [Compound 15] | >8000 | 2 (≈ 2.26 nM) | 30 (≈ 34 nM) | 1000 (≈ 1130 nM) | 250 (≈ 283 nM)
COC1C=COC2(C)Oc3c(C)c(O)c4c(=O)c(c5oc6cc(N7CC8CCCNC8C7)cc(O)c6nc-5c4c3C2=O)NC(=O)C(C)=CC=CC(C)C(O)C(C)C(O)C(C)C(OC(C)=O)C1C (stereo not shown) [Compound 12] | 8000 (≈ 8650 nM) | 0.25 (≈ 0.27 nM) | 4 (≈ 4.32 nM) | 250 (≈ 270 nM) | 120 (≈ 130 nM)
CO[C@H]1/C=C/O[C@@]2(C)Oc3c(C)c(O)c4c(=O)c(c5oc6cc(N7CCN(C8CCN(C)CC8)CC7)cc(O)c6nc-5c4c3C2=O)NC(=O)/C(C)=C\C=C\[C@H](C)[C@H](O)[C@@H](C)[C@@H](O)[C@@H](C)[C@H](O)[C@@H]1C [Compound 98] | >8000 | 2 (≈ 2.13 nM) | 15 (≈ 16 nM) | 1000 (≈ 1060 nM) | 500 (≈ 532 nM)
CCOC(=O)N1CCCC2CN(c3cc(O)c4nc5c6c7c8c(C)c(O)c6c(=O)c(c-5oc4c3)NC(=O)C(C)=CC=CC(C)C(O)C(C)C(O)C(C)C(OC(C)=O)C(C)C(OC)C=COC(C)(O8)C7=O)CC21 (stereo not shown) [Compound 147] | >8000 | 8 (≈ 8.02 nM) | 60 (≈ 60.2 nM) | 500 (≈ 501 nM) | 1000 (≈ 1000 nM)
CO[C@H]1/C=C/O[C@@]2(C)Oc3c(C)c(O)c4c(=O)c(c5oc6cc(N7CCC(CNC(C)=O)CC7)cc(O)c6nc-5c4c3C2=O)NC(=O)/C(C)=C\C=C\[C@H](C)[C@H](O)[C@@H](C)[C@@H](O)[C@@H](C)[C@H](OC(C)=O)[C@@H]1C [Compound 55] | 8000 (≈ 8380 nM) | 0.25 (≈ 0.262 nM) | 8 (≈ 8.38 nM) | 500 (≈ 524 nM) | 1000 (≈ 1050 nM)
COC1C=COC2(C)Oc3c(C)c(O)c4c(=O)c(c5oc6cc(N7CC8C(N)C8C7)cc(O)c6nc-5c4c3C2=O)NC(=O)C(C)=CC=CC(C)C(O)C(C)C(O)C(C)C(OC(C)=O)C1C (stereo not shown) [Compound 4] | >8000 | 0.25 (≈ 0.279 nM) | 30 (≈ 33.4 nM) | 250 (≈ 279 nM) | 500 (≈ 557 nM)
COC1C=COC2(C)Oc3c(C)c(O)c4c(=O)c(c5oc6cc(N7CC8CCCN(C(C)=O)C8C7)cc(O)c6nc-5c4c3C2=O)NC(=O)C(C)=CC=CC(C)C(O)C(C)C(O)C(C)C(OC(C)=O)C1C (stereo not shown) [Compound 149] | >8000 | 2 (≈ 2.07 nM) | 8 (≈ 8.27 nM) | 250 (≈ 259 nM) | 1000 (≈ 1030 nM)
CO[C@H]1/C=C/O[C@@]2(C)Oc3c(C)c(O)c4c(=O)c(c5oc6cc(N7CCCC7)c(F)cc6nc-5c4c3C2=O)NC(=O)/C(C)=C\C=C\[C@H](C)[C@H](O)[C@@H](C)[C@@H](O)[C@@H](C)[C@H](O)[C@@H]1C [Compound 123] | 8000 (≈ 9640 nM) | 60 (≈ 72.3 nM) | 30 (≈ 36.1 nM) | 120 (≈ 145 nM) | 1000 (≈ 1200 nM)
CO[C@H]1/C=C/O[C@@]2(C)Oc3c(C)c(O)c4c(=O)c(c5oc6cc(N7CCC(NC(=O)SC)CC7)cc(O)c6nc-5c4c3C2=O)NC(=O)/C(C)=C\C=C\[C@H](C)[C@H](O)[C@@H](C)[C@@H](O)[C@@H](C)[C@H](OC(C)=O)[C@@H]1C [Compound 45] | 8000 (≈ 8220 nM) | 1 (≈ 1.03 nM) | 15 (≈ 15.4 nM) | 500 (≈ 514 nM) | 4000 (≈ 4110 nM)
CO[C@H]1/C=C/O[C@@]2(C)Oc3c(C)c(O)c4c(=O)c(c5oc6cc(N7CC8CCC(C7)N8)cc(O)c6nc-5c4c3C2=O)NC(=O)/C(C)=C\C=C\[C@H](C)[C@H](O)[C@@H](C)[C@@H](O)[C@@H](C)[C@H](O)[C@@H]1C [Compound 16] | 4000 (≈ 4600 nM) | 1 (≈ 1.15 nM) | 15 (≈ 17.3 nM) | 250 (≈ 288 nM) | 120 (≈ 138 nM)
